Data reported in US20160331723A1, “PHARMACOLOGICAL TREATMENT OF ATTENTION DEFICIT AND/OR HYPERACTIVITY” (BIOCODEX, priority 2013, published 2016).

Assays:
[1] = system: epilepsy seizures in children presenting with Dravet syndrome; conditions: add-on therapy to valproate and clobazam; cited from earlier work
Wistar kyoto (WKY) rats [2] = assay: Actimetry (opto-varimex), juvenile WKY control rats; format: in vivo, rat; conditions: 200 mg/kg i.p., vs vehicle
Procedure: (§1) Juvenile (25-30 days old, 80-120 g) or adolescent (40-45 days old, 140-160 g) male Wistar SHR rats or the control strain Wistar kyoto (WKY) rats, from River Germany, were used in this study. They were housed 2 per cage (Techniplast ref. 1291), and maintained in a 12 h light/dark cycle (light ON at 7 AM). Food and water were provided ad libitum. Rats were acclimated to the animal facilities at least 5 days before testing started. The experiments were conducted in accordance with the European Recommendations (directive 86/609/EEC) for the use and care of laboratory animals.
(§2) Animals are placed in the opto-varimex system (Plexiglas arena, 42×42 cm, Columbus Instruments, Columbus, Ohio), an automated system to quantify their activity as horizontal or vertical movements. Animals are habituated to the behavioral room for one hour before the beginning of the test, illumination intensity is around 400 lux. Activity is recorded immediately after placing the animal in the system, forty five minutes after injection, for a one hour period. Animals are assigned to a test group and tested only once. […]
(§3) Data are represented as the mean±standard error of mean (S.E.M.). The difference between Stiripentol and vehicle treated rats, was assessed with an ANOVA or repeated measures ANOVA (one factor repetition). […]

[3] = several animal models; cited from earlier work
[4] = system: Spontaneously Hypertensive Rat (SHR); assay: Open field test, juvenile SHR rats; format: in vivo; conditions: 200 mg/kg i.p., second 10 minutes period, vs vehicle, p<0.001
Description: The inventors have examined the potential new therapeutic application of Stiripentol (STP, Diacomit®) in attention deficit and hyperactivity disorder (ADHD). For this, the effect of an acute administration of Stiripentol, on hyperactivity in rats was studied. The model chosen for this study is the Spontaneously Hypertensive Rat (SHR), a rat model that has been described as a model for hyperactivity (Sagvolden et al. (1992) Behav. Neural. Biol. 58:103-112; Sagvolden et al. (2009) Neuropharmacology 57:619-626; Davids et al. (2003) Brain Res. Brain Res. Rev. 42:1-21) and three behavioral tests were run: an open field test, an actimetry test and a grip test.
Juvenile (25-30 days old, 80-120 g) or adolescent (40-45 days old, 140-160 g) male Wistar SHR rats or the control strain Wistar kyoto (WKY) rats, from River Germany, were used in this study. […]
Rats are placed in the middle of an open field (a closed arena of 1 m×1 m), and recorded with a videotracking system (Videotrack, Viewpoint S.A., Lyon France). […] The number of rearings and zone changes is recorded during 2 consecutive 10 minutes periods. […]
as §3

Wistar kyoto (WKY) rats [5] = assay: Open field test, juvenile WKY control rats; format: in vivo, rat; conditions: 200 mg/kg i.p., second 10 minutes period, vs vehicle
Procedure: as §1
Rats are placed in the middle of an open field (a closed arena of 1 m×1 m), and recorded with a videotracking system (Videotrack, Viewpoint S.A., Lyon France). The arena is separated in 9 equivalent zones on the analysis software. Illumination intensity is set around 30 lux. The number of rearings and zone changes is recorded during 2 consecutive 10 minutes periods. The test is started forty five minutes after vehicle or STP injection. For juvenile rats (around 25 days old, n=30 SHR rats, n=30 WKY rats), each rat was randomly assigned to a test group and tested once. […]
as §3

[6] = system: WKY (control) or SHR adolescent rats; assay: Grip test (muscular strength); format: in vivo, rat; conditions: WKY and SHR rats (40-45 days old), 200 mg/kg i.p., 1 hour after administration, p=0.058, listed as STP
Procedure: The grip test measures the muscular strength of the animal. This test is used to identify myorelaxant properties of compounds. An electronic system is used (Bioseb) to measure the force developed by a rat grasping a T-shape bar with its forelimb. Five consecutive measures are taken, data are expressed as mean±standard error of mean. […] Measures are taken 60 minutes after intraperitoneal (i.p.) injection.
Stiripentol (batch 176, dissolved in 5% tween 80 in 0.9% NaCl) was administered i.p. at the dose of 200 mg/kg with an injection volume of 10 ml/kg.
Data are represented as the mean±standard error of mean (S.E.M.). The difference between Stiripentol and vehicle treated rats, was assessed with an ANOVA or repeated measures ANOVA (one factor repetition). Significance was set at p<0.05 (Sigma Stat, v3.5, SPSS, Chicago, USA).

[7] = system: Spontaneously Hypertensive Rat (SHR); assay: Actimetry (opto-varimex), juvenile SHR rats; format: in vivo; conditions: 200 mg/kg i.p., vs vehicle
Procedure: as §1, §2, §3

SMILES: CC(C)(C)C(O)/C=C/c1ccc2c(c1)OCO2 (racemic) [Stiripentol, 1-penten-3-ol,1-(1,3-benzodioxol)-4,4-dimethyl]
- efficacy in controlling epilepsy seizures (responder rate) [1]: demonstrated
- locomotor (ambulatory) activity in actimetry (Wistar kyoto (WKY) rats [2]; WKY control juvenile rats, one hour recording): no effect
- number of rearings in actimetry (Wistar kyoto (WKY) rats [2]; WKY juvenile rats): no effect
- anticonvulsant activity [3]: shown anticonvulsant activity
- rearing activity in open field ([4]; SHR juvenile rats (25 days old)): significantly decreases
- number of zone changes in open field ([4]; SHR juvenile rats): decreased
- rearing activity in open field (Wistar kyoto (WKY) rats [5]): no effect
- strength developed in the grip test (myorelaxant effect) [6]: no significant effect
- rearing behavior in actimetry [7]: statistically decreases
